# Results published in patent US5124342A, “4-hydroxythiazoles as 5-lipoxygenase inhibitors” (Abbott Laboratories, priority 1990, dated 1992).
# Biological target: T1, 5-lipoxygenase (Rattus norvegicus, UniProt P12527)
# T1 construct: homogenized RBL-1 cells; endogenous in cells; host or cells: RBL-1 cells (20,000×g supernatant of homogenate)
# T1 sequence (P12527 1-673): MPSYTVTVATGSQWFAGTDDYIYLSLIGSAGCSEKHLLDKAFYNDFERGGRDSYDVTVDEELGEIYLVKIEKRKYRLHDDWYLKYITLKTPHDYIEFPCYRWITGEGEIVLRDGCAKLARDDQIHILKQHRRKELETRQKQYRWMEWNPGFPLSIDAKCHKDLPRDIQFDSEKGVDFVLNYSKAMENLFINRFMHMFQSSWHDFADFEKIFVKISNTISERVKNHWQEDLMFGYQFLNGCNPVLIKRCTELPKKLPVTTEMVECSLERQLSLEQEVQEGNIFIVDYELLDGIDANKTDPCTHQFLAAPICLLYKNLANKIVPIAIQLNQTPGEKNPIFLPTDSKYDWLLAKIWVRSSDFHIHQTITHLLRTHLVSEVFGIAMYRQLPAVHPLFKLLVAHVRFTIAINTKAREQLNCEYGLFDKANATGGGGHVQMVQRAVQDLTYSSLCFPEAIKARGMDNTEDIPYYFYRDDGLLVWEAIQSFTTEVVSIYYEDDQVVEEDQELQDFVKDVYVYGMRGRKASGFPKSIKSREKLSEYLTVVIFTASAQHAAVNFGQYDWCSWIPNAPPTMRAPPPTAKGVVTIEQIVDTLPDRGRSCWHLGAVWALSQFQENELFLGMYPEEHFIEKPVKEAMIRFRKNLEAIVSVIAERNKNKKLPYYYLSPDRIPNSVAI
# Assay: 5-Lipoxygenase inhibition, 20,000×g supernatant of homogenized RBL-1 cells, radiolabeled arachidonic acid
# Format: biochemical
# Settings: 5-lipoxygenase from RBL-1 20,000 × g supernatant; read-out: IC50 (95% CL)
# Protocol: Proc., Fed. Am. Soc. Exp. Biol. 1984, 43, […]. Reactions were initiated by the addition of radiolabeled arachidonic acid and terminated by acidification and ether extraction. Reaction products were separated from nonconvented substrate by thin layer chromatography and measured by liquid scintillation spectroscopy. Inhibition of 5-lipoxygenase activity was calculated as the ratio of the amounts of product formed in the presence and absence of inhibitor.
row,SMILES,IC50
1,"CCCCc1sc(-c2ccccc2)nc1OC(C)=O [Example 67, 2-Phenyl-4-acetoxy-5-butylthiazole]",950 nM
2,"CCc1sc(-c2ccccc2)nc1O [Example 35, 2-Phenyl-4-hydroxy-5-ethylthiazole]",830 nM
3,"CCOC(=O)c1ccc(-c2nc(O)c(C)s2)cc1 [Example 23, 2-(4-Carboethoxyphenyl)-4-hydroxy-5-methylthiazole]",710 nM
4,"Cc1sc(-c2ccc(C(=O)OCCc3ccccc3)cc2)nc1O [Example 13, 2-(4-Carbo-2-phenethoxyphenyl)-4-hydroxy-5-methylthiazole]",980 nM
5,"CC(=O)c1ccc(-c2nc(O)c(C)s2)cc1 [Example 18, 2-(4-Acetylphenyl)-4-hydroxy-5-methylthiazole]",900 nM
6,"Oc1nc(-c2ccccc2)sc1-c1ccccc1 [Example 34, 2-Phenyl-4-hydroxy-5-phenylthiazole]",530 nM
7,"CCCc1sc(-c2ccccc2)nc1O [Example 36, 2-Phenyl-4-hydroxy-5-propylthiazole]",580 nM
8,"CCOC(=O)CCC(=O)Oc1nc(-c2ccccc2)sc1-c1ccccc1 [Example 53, 2-Phenyl-4-ethyl succinyloxy-5-phenylthiazole]",750 nM
9,"COC(=O)c1ccc(-c2nc(OC(C)=O)c(C)s2)cc1 [Example 60, 2-(4-Carbomethoxyphenyl)-4-acetoxy-5-methylthiazole]",690 nM
10,"Oc1nc(-c2ccccc2)sc1CCc1ccccc1 [Example 38, 2-Phenyl-4-hydroxy-5-phenethylthiazole]",690 nM
11,"Cc1sc(-c2ccc(C#N)cc2)nc1O [Example 20, 2-(4-Cyanophenyl)-4-hydroxy-5-methylthiazole]",700 nM
12,"CCCc1sc(-c2ccccc2)nc1OC(=O)OCC [Example 54, 2-Phenyl-[4-(carboethoxy)oxy]-5-propylthiazole]",910 nM
13,"Cc1sc(-c2cccc(Br)c2)nc1O [Example 26, 2-(3-Bromophenyl)-4-hydroxy-5-methylthiazole]",480 nM
14,"Cc1sc(-c2ccccc2F)nc1O [Example 24, 2-(2-Fluorophenyl)-4-hydroxy-5-methylthiazole]",500 nM
15,"Cc1sc(-c2cccc(F)c2)nc1O [Example 25, 2-(3-Fluorophenyl)-4-hydroxy-5-methylthiazole]",660 nM
16,"Cc1sc(-c2ccc(Cl)cc2)nc1O [Example 11, 2-(4-Chlorophenyl)-4-hydroxy-5-methylthiazole]",570 nM
17,"Cc1sc(-c2ccc(F)cc2)nc1O [Example 9, 2-(4-Fluorophenyl)-4-hydroxy-5-methylthiazole]",350 nM
18,"Cc1sc(-c2ccccc2)nc1O [Example 31, 2-Phenyl-4-hydroxy-5-methylthiazole]",960 nM
19,"Cc1cccc(-c2nc(O)c(C)s2)c1Cl [Example 29, 2-(2-Chloro-3-methylphenyl)-4-hydroxy-5-methylthiazole]",820 nM
20,"COC(=O)c1ccc(-c2nc(O)c(C)s2)cc1 [Example 17, 2-(4-Carbomethoxyphenyl)-4-hydroxy-5-methylthiazole]",880 nM
21,"COc1ccc2nc(-c3nc(O)c(C)s3)sc2c1 [Example 6, 2-[2-(6-Methoxybenzothiazolyl)]-4-hydroxy-5-methylthiazole]",890 nM
22,"Cc1sc(-c2ccc(Br)cc2)nc1O [Example 10, 2-(4-Bromophenyl)-4-hydroxy-5-methylthiazole]",510 nM
23,"Cc1ccc(-c2nc(O)c(C)s2)cc1 [Example 33, 2-(4-Methylphenyl)-4-hydroxy-5-methylthiazole]",630 nM

# Same assay, conditions: at 0.3 μM; RBL-1 20,000 × g supernatant; read-out: % Inhibition at μM Conc.
row,SMILES,inhibition at 0.3 µM
1,"COc1ccc(-c2nc(O)c(-c3ccccc3)s2)cc1 [Example 43, 2-(4-Methoxyphenyl)-4-hydroxy-5-phenylthiazole]",88%
2,"Oc1nc(-c2cccnc2)sc1-c1ccccc1 [Example 41, 2-(3-Pyridyl)-4-hydroxy-5-phenylthiazole]",83%

# Same assay, conditions: at 0.4 μM; RBL-1 20,000 × g supernatant; read-out: % Inhibition at μM Conc.
row,SMILES,inhibition at 0.4 µM
1,"CCOc1ccc(-c2nc(O)c(-c3ccccc3)s2)cc1 [Example 48, 2-(4-Ethoxyphenyl)-4-hydroxy-5-phenylthiazole]",77%
2,"Cc1ccc(-c2nc(O)c(-c3ccccc3)s2)cc1 [Example 46, 2-(4-Methylphenyl)-4-hydroxy-5-phenylthiazole]",91%
3,"Oc1nc(-c2ccc(F)cc2)sc1-c1ccccc1 [Example 47, 2-(4-Fluorophenyl)-4-hydroxy-5-phenylthiazole]",82%
4,"CC(=O)Oc1nc(-c2ccccc2)sc1-c1ccccc1 [Example 50, 2-Phenyl-4-acetoxy-5-phenylthiazole]",88%

# Same assay, conditions: at 0.5 μM; RBL-1 20,000 × g supernatant; read-out: % Inhibition at μM Conc.
row,SMILES,inhibition at 0.5 µM
1,"CC(=O)Oc1nc(-c2ccc(C)cc2)sc1-c1ccccc1 [Example 62, 2-(4-Methylphenyl)-4-acetoxy-5-phenylthiazole]",93%

# Same assay, conditions: at 0.75 μM; RBL-1 20,000 × g supernatant; read-out: % Inhibition at μM Conc.
row,SMILES,inhibition at 0.75 µM
1,"CC(=O)Oc1nc(-c2ccc(-c3ccccc3)cc2)sc1-c1ccccc1 [Example 65, 2-Biphenyl-4-acetoxy-5-phenylthiazole]",82%

# Same assay, conditions: at 1 μM; RBL-1 20,000 × g supernatant; read-out: % Inhibition at μM Conc.
row,SMILES,inhibition at 1 µM
1,"CCCCCc1nc(OC(C)=O)c(CCC)s1 [Example 68, 2-Pentyl-4-acetoxy-5-propylthiazole]",79%
